According to patent publication US4108973A, “Immunoassay for catecholamines” (Hoffmann-La Roche Inc., priority 1976, dated 1978):

Target: Ab-7^123 dl-Met complex (epinephrine type catecholamine antibody)
Assay: Antibody specificity: 50% inhibition of antibody-labelled dl-metanephrine complex (competitive binding radioimmunoassay)
Parameters: species or system rabbit
Settings: amount for 50% inhibition; incubation volume 0.5 or 1.0 ml
Method: The specificity of an epinephrine type catecholamine antibody suitable for use in the practice of the present method is set forth below in Table 1:
For immunization of rabbits, 10 mg. of each of the products of Example 8 or Example 9 was dissolved in 1 ml. of phosphate buffered saline and emulsified with 1 ml. of complete Freund's adjuvant. The second inoculation was given three weeks later and consisted of 1.5 mg. immunogen in 1 ml. PBS emulsified with 1 ml. of complete Freund's adjuvant. The third injection, five weeks after the first, employed the same concentration of antigen but was in incomplete Freund's adjuvant. Immunizations were by the subcutaneous route.
A competitive binding radioimmunoassay procedure is used similar to that described in U.S. Pat. No. 3,704,282. An incubation volume of either 0.5 or 1.0 ml. is used and antibody-label complex is separated from free label by precipitation with saturated

| SMILES | 50 % INHIBITION OF Ab-7^123 dl-Met OMPLEX [ng] |
| --- | --- |
| CNCC(O)c1ccc(O)c(OC)c1 (racemic) [dl-Metanephrine] | 0.050 |
| N[C@@H](Cc1ccc(O)c(O)c1)C(=O)O [DOPA] | > 500 |
| CNCC(O)c1ccc(O)cc1 (racemic) [dl-Synephrine] | 0.100 |
| CNC(C)Cc1ccccc1 (stereo not shown) [Methamphetamine] | > 500 |
| CC(N)Cc1ccccc1 (stereo not shown) [Amphetamine] | > 500 |
| CNC(C)C(O)c1ccccc1 (stereo not shown) [Ephedrine] | > 500 |
| NC[C@H](O)c1ccc(O)c(O)c1 [1-Norepinephrine] | > 500 |
| CC(C)NCC(O)c1ccc(O)c(O)c1 (stereo not shown) [Isoproterenol] | > 500 |
| CNCCc1ccc(O)c(O)c1 [Epinine] | 0.350 |
| NCCc1ccc(O)c(O)c1 [Dopamine] | > 500 |
| CNC[C@H](O)c1cccc(O)c1 [1-Phenylephrine] | 0.060 |
| CNC[C@H](O)c1ccc(O)c(O)c1 [1-Epinephrine] | 0.250 |
| NCCc1c[nH]c2ccc(O)cc12 [Sezotosin] | > 500 |
